ChEMBL document CHEMBL1138103, “Synthesis and antibacterial activity of new fluoroquinolones containing a substituted N-(phenethyl)piperazine moiety” (2006)
≈ marks a conversion by molar mass, not a printed value.

Key:
Format in all cases: functional
Staphylococcus aureus [1] = experiment: microbe, parasite or virus in culture; details: ATCC 6538P
Description: Antibacterial activity against Staphylococcus aureus ATCC 6538p by agar-dilution method

Bacillus subtilis = experiment: microbe, parasite or virus in culture; details: ATCC 6633
Description: Antibacterial activity against Bacillus subtilis ATCC 6633 by agar-dilution method

[2] = system: Staphylococcus epidermidis; experiment: microbe, parasite or virus in culture; details: ATCC 12228
Description: Antibacterial activity against Staphylococcus epidermidis ATCC 12228 by agar-dilution method

Escherichia coli = experiment: microbe, parasite or virus in culture; details: ATCC 8739
Description: Antibacterial activity against Escherichia coli ATCC 8739 by agar-dilution method

Klebsiella pneumoniae = experiment: microbe, parasite or virus in culture; details: ATCC 10031
Description: Antibacterial activity against Klebsiella pneumoniae ATCC 10031 by agar-dilution method

Pseudomonas aeruginosa = experiment: microbe, parasite or virus in culture; details: ATCC 9027
Description: Antibacterial activity against Pseudomonas aeruginosa ATCC 9027 by agar-dilution method

Staphylococcus aureus [3] = experiment: Antibacterial activity against methicillin-resistant Staphylococcus aureus 1 by agar-dilution method
Staphylococcus aureus [4] = experiment: Antibacterial activity against methicillin-resistant Staphylococcus aureus 2 by agar-dilution method

Compound | MIC (Staphylococcus aureus [1]) | MIC (Bacillus subtilis) | MIC [2] | MIC (Escherichia coli) | MIC (Klebsiella pneumoniae) | MIC (Pseudomonas aeruginosa) | MIC (Staphylococcus aureus [3]) | MIC (Staphylococcus aureus [4])
CCn1cc(C(=O)O)c(=O)c2cc(F)c(N3CCN(C/C(=N\OC)c4ccccc4)CC3)cc21 | 25 µg/mL (≈ 53.6 µM) | 6.25 µg/mL (≈ 13.4 µM) | 25 µg/mL (≈ 53.6 µM) | 12.5 µg/mL (≈ 26.8 µM) | 12.5 µg/mL (≈ 26.8 µM) | > 100 µg/mL | – | –
CO/N=C(\CN1CCN(c2cc3c(cc2F)c(=O)c(C(=O)O)cn3C2CC2)CC1)c1ccc(Cl)cc1Cl | 0.39 µg/mL (≈ 0.712 µM) | 0.025 µg/mL (≈ 0.0457 µM) | 0.39 µg/mL (≈ 0.712 µM) | 0.025 µg/mL (≈ 0.0457 µM) | 0.012 µg/mL (≈ 0.0219 µM) | 1.56 µg/mL (≈ 2.85 µM) | 0.39 µg/mL (≈ 0.712 µM) | 0.39 µg/mL (≈ 0.712 µM)
CCn1cc(C(=O)O)c(=O)c2cc(F)c(N3CCNCC3)cc21 [NORFLOXACIN] | 0.78 µg/mL (≈ 2.44 µM) | 0.049 µg/mL (≈ 0.153 µM) | 0.78 µg/mL (≈ 2.44 µM) | 0.049 µg/mL (≈ 0.153 µM) | 0.049 µg/mL (≈ 0.153 µM) | 3.13 µg/mL (≈ 9.8 µM) | 0.78 µg/mL (≈ 2.44 µM) | 0.78 µg/mL (≈ 2.44 µM)
O=C(CN1CCN(c2cc3c(cc2F)c(=O)c(C(=O)O)cn3C2CC2)CC1)c1ccc(Cl)cc1 | 0.39 µg/mL (≈ 0.806 µM) | 0.049 µg/mL (≈ 0.101 µM) | 0.195 µg/mL (≈ 0.403 µM) | 0.025 µg/mL (≈ 0.0517 µM) | 0.013 µg/mL (≈ 0.0269 µM) | 1.56 µg/mL (≈ 3.22 µM) | 0.39 µg/mL (≈ 0.806 µM) | 0.39 µg/mL (≈ 0.806 µM)
O=C(CN1CCN(c2cc3c(cc2F)c(=O)c(C(=O)O)cn3C2CC2)CC1)c1ccccc1Cl | 0.39 µg/mL (≈ 0.806 µM) | 0.049 µg/mL (≈ 0.101 µM) | 0.195 µg/mL (≈ 0.403 µM) | 0.098 µg/mL (≈ 0.203 µM) | 0.025 µg/mL (≈ 0.0517 µM) | 6.25 µg/mL (≈ 12.9 µM) | 0.39 µg/mL (≈ 0.806 µM) | 0.39 µg/mL (≈ 0.806 µM)
O=C(O)c1cn(C2CC2)c2cc(N3CCNCC3)c(F)cc2c1=O [CIPROFLOXACIN] | 0.39 µg/mL (≈ 1.18 µM) | 0.025 µg/mL (≈ 0.0754 µM) | 0.39 µg/mL (≈ 1.18 µM) | 0.025 µg/mL (≈ 0.0754 µM) | 0.025 µg/mL (≈ 0.0754 µM) | 0.78 µg/mL (≈ 2.35 µM) | 0.39 µg/mL (≈ 1.18 µM) | 0.39 µg/mL (≈ 1.18 µM)
O=C(O)c1cn(C2CC2)c2cc(N3CCN(C/C(=N\O)c4ccc(Cl)cc4)CC3)c(F)cc2c1=O | 0.39 µg/mL (≈ 0.782 µM) | 0.78 µg/mL (≈ 1.56 µM) | 0.195 µg/mL (≈ 0.391 µM) | 0.78 µg/mL (≈ 1.56 µM) | 0.049 µg/mL (≈ 0.0982 µM) | 100 µg/mL (≈ 200 µM) | 0.195 µg/mL (≈ 0.391 µM) | 0.098 µg/mL (≈ 0.196 µM)
CO/N=C(\CN1CCN(c2cc3c(cc2F)c(=O)c(C(=O)O)cn3C2CC2)CC1)c1ccc(F)cc1F | 6.25 µg/mL (≈ 12.1 µM) | 0.78 µg/mL (≈ 1.52 µM) | 6.25 µg/mL (≈ 12.1 µM) | 1.56 µg/mL (≈ 3.03 µM) | 0.78 µg/mL (≈ 1.52 µM) | 12.5 µg/mL (≈ 24.3 µM) | – | –
CCn1cc(C(=O)O)c(=O)c2cc(F)c(N3CCN(C/C(=N\OC)c4ccc(Cl)cc4Cl)CC3)cc21 | 12.5 µg/mL (≈ 23.3 µM) | 12.5 µg/mL (≈ 23.3 µM) | 12.5 µg/mL (≈ 23.3 µM) | 12.5 µg/mL (≈ 23.3 µM) | 6.25 µg/mL (≈ 11.7 µM) | > 100 µg/mL | – | –
O=C(O)c1cn(C2CC2)c2cc(N3CCN(C/C(=N\O)c4ccccc4Cl)CC3)c(F)cc2c1=O | 0.39 µg/mL (≈ 0.782 µM) | 0.78 µg/mL (≈ 1.56 µM) | 0.195 µg/mL (≈ 0.391 µM) | 0.78 µg/mL (≈ 1.56 µM) | 0.025 µg/mL (≈ 0.0501 µM) | 25 µg/mL (≈ 50.1 µM) | 0.39 µg/mL (≈ 0.782 µM) | 0.39 µg/mL (≈ 0.782 µM)
CO/N=C(\CN1CCN(c2cc3c(cc2F)c(=O)c(C(=O)O)cn3C2CC2)CC1)c1ccccc1Cl | 0.39 µg/mL (≈ 0.76 µM) | 0.049 µg/mL (≈ 0.0955 µM) | 0.195 µg/mL (≈ 0.38 µM) | 0.025 µg/mL (≈ 0.0487 µM) | 0.013 µg/mL (≈ 0.0253 µM) | 6.25 µg/mL (≈ 12.2 µM) | 0.39 µg/mL (≈ 0.76 µM) | 0.39 µg/mL (≈ 0.76 µM)
CO/N=C(\CN1CCN(c2cc3c(cc2F)c(=O)c(C(=O)O)cn3C2CC2)CC1)c1ccc(Cl)cc1 | 0.78 µg/mL (≈ 1.52 µM) | 1.56 µg/mL (≈ 3.04 µM) | 0.39 µg/mL (≈ 0.76 µM) | 1.56 µg/mL (≈ 3.04 µM) | 0.78 µg/mL (≈ 1.52 µM) | > 100 µg/mL | 0.39 µg/mL (≈ 0.76 µM) | 0.39 µg/mL (≈ 0.76 µM)

Second part, led by results:

MIC (Staphylococcus aureus [1]) | MIC (Bacillus subtilis) | MIC [2] | MIC (Escherichia coli) | MIC (Klebsiella pneumoniae) | MIC (Pseudomonas aeruginosa) | Compound | MIC (Staphylococcus aureus [3]) | MIC (Staphylococcus aureus [4])
25 µg/mL (≈ 46.6 µM) | 12.5 µg/mL (≈ 23.3 µM) | 25 µg/mL (≈ 46.6 µM) | 12.5 µg/mL (≈ 23.3 µM) | 6.25 µg/mL (≈ 11.7 µM) | 50 µg/mL (≈ 93.2 µM) | CCn1cc(C(=O)O)c(=O)c2cc(F)c(N3CCN(C/C(=N\OC)c4ccc(Cl)cc4Cl)CC3)nc21 | – | –
25 µg/mL (≈ 49.7 µM) | 1.56 µg/mL (≈ 3.1 µM) | 25 µg/mL (≈ 49.7 µM) | 50 µg/mL (≈ 99.3 µM) | 25 µg/mL (≈ 49.7 µM) | > 100 µg/mL | CCn1cc(C(=O)O)c(=O)c2cc(F)c(N3CCN(C/C(=N\OC)c4ccc(F)cc4F)CC3)nc21 | – | –
6.25 µg/mL (≈ 12.9 µM) | 3.13 µg/mL (≈ 6.46 µM) | 1.56 µg/mL (≈ 3.22 µM) | 3.13 µg/mL (≈ 6.46 µM) | 0.78 µg/mL (≈ 1.61 µM) | 100 µg/mL (≈ 206 µM) | CCn1cc(C(=O)O)c(=O)c2cc(F)c(N3CCN(C/C(=N\OC)c4ccc(F)cc4)CC3)cc21 | – | –
6.25 µg/mL (≈ 12.6 µM) | 6.25 µg/mL (≈ 12.6 µM) | 6.25 µg/mL (≈ 12.6 µM) | 3.13 µg/mL (≈ 6.3 µM) | 3.13 µg/mL (≈ 6.3 µM) | 50 µg/mL (≈ 101 µM) | CO/N=C(\CN1CCN(c2cc3c(cc2F)c(=O)c(C(=O)O)cn3C2CC2)CC1)c1ccc(F)cc1 | – | –
12.5 µg/mL (≈ 25.7 µM) | 6.25 µg/mL (≈ 12.9 µM) | 6.25 µg/mL (≈ 12.9 µM) | 6.25 µg/mL (≈ 12.9 µM) | 1.56 µg/mL (≈ 3.21 µM) | 100 µg/mL (≈ 206 µM) | CCn1cc(C(=O)O)c(=O)c2cc(F)c(N3CCN(C/C(=N\OC)c4ccc(F)cc4)CC3)nc21 | – | –
12.5 µg/mL (≈ 24.9 µM) | 1.56 µg/mL (≈ 3.1 µM) | 12.5 µg/mL (≈ 24.9 µM) | 25 µg/mL (≈ 49.8 µM) | 12.5 µg/mL (≈ 24.9 µM) | > 100 µg/mL | CCn1cc(C(=O)O)c(=O)c2cc(F)c(N3CCN(C/C(=N\OC)c4ccc(F)cc4F)CC3)cc21 | – | –
1.56 µg/mL (≈ 4.87 µM) | 0.098 µg/mL (≈ 0.306 µM) | 0.78 µg/mL (≈ 2.44 µM) | 0.098 µg/mL (≈ 0.306 µM) | 0.098 µg/mL (≈ 0.306 µM) | 6.25 µg/mL (≈ 19.5 µM) | CCn1cc(C(=O)O)c(=O)c2cc(F)c(N3CCNCC3)nc21 [ENOXACIN] | – | –
25 µg/mL (≈ 53.5 µM) | 12.5 µg/mL (≈ 26.7 µM) | 25 µg/mL (≈ 53.5 µM) | 12.5 µg/mL (≈ 26.7 µM) | 12.5 µg/mL (≈ 26.7 µM) | > 100 µg/mL | CCn1cc(C(=O)O)c(=O)c2cc(F)c(N3CCN(C/C(=N\OC)c4ccccc4)CC3)nc21 | – | –
12.5 µg/mL (≈ 26.1 µM) | 6.25 µg/mL (≈ 13.1 µM) | 12.5 µg/mL (≈ 26.1 µM) | 6.25 µg/mL (≈ 13.1 µM) | 3.13 µg/mL (≈ 6.54 µM) | 100 µg/mL (≈ 209 µM) | CO/N=C(\CN1CCN(c2cc3c(cc2F)c(=O)c(C(=O)O)cn3C2CC2)CC1)c1ccccc1 | – | –
